The record followed here is ChEMBL document CHEMBL1123940, “Carbamate ester derivatives as potential prodrugs of the presynaptic dopamine autoreceptor agonist (-)-3-(3-hydroxyphenyl)-N-propylpiperidine” (J Med Chem, 1987).

The assay concerns the target Acetylcholinesterase (Homo sapiens, UniProt P22303). In words: Inhibitory activity against acetylcholinesterase in human blood. It is filed as tissue-based.

Acetylcholinesterase, sequence (P22303 whole entry): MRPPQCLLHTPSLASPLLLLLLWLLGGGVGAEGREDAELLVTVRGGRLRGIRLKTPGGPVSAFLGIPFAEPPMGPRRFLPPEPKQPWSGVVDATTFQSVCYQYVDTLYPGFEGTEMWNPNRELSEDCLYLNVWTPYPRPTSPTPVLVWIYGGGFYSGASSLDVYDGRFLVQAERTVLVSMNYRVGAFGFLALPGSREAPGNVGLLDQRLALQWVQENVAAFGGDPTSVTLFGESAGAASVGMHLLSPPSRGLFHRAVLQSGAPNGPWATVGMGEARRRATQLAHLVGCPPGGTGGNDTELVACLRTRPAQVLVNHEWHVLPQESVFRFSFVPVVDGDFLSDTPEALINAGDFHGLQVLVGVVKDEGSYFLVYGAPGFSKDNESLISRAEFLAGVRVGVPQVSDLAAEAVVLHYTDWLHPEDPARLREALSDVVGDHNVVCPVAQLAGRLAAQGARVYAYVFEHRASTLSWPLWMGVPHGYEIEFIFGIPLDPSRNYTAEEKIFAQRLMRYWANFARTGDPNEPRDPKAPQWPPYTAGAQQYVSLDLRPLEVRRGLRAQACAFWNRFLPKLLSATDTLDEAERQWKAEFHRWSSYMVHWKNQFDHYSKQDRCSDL

As to `CCCN1CCCC(c2cccc(OC(=O)NC(C)C)c2)C1` (stereo unspecified), the IC50 (commonly the point on the concentration scale where inhibition reaches its midpoint) turned out to be 10 µM.
